≈ marks a conversion by molar mass, not a printed value.

The source of these data is patent US20250221970A1, “Combinations of a B-RAF Inhibitor and an Anti-EGFR Antibody for the Treatment of Cancer” (MapKure, LLC, priority 2022, published 2025).

A short description of series [1]: Solid form stability of Form F at long-term and accelerated condition. In kind it is physicochemical.
Series [2] can be described thus: Solubility of the solid form (Form F) of Compound A. In kind it is physicochemical.
Series [3] in a line: Hygroscopicity of the solid form (Form F) of Compound A. The settings on record: at 80% relative humidity (RH). It counts as physicochemical.
A short description of series [4]: Compound A monotherapy clinical study. It counts as in vivo, human.
Series [5] concerns CYP3A. The experiment in a line: In vitro metabolism of Compound A. The settings on record: in vitro data. In kind it is in vitro ADME.

Turning to `O=C1CCc2c(Oc3ccc4c(c3)[C@H]3[C@H](NC(=O)Nc5cc(F)c(F)cc5F)[C@H]3O4)ccnc2N1` [Compound A, 1-((1S,1aS,6bS)-5-((7-oxo-5,6,7,8-tetrahydro-1,8-naphthyridin-4-yl)oxy)-1a,6b-dihydro-1H-cyclopropa[b]benzofuran-1-yl)-3-(2,4,5-trifluorophenyl) urea], the “Stability: time Form F is in amorphous form” value was “(25° C./60% RH) as well as for 6 months at accelerated condition (40° C./” in series [1] (accelerated condition (40° C./75% RH)) and “Form F is in amorphous form for 24 months at long-term condition” in series [1] (long-term condition (25° C./60% RH)). The solubility is 240 µg/mL (≈ 497 µM) in series [2] (0.1N HCl, simulated gastric fluid, in 0.1N HCI); 310 µg/mL (≈ 643 µM) in series [2] (medium with 0.5% hexadecyl trimethyl ammonium bromide (HTAB), aqueous with cosolvent or surfactant or cyclodextrin, with 0.5% HTAB (hexadecyl trimethyl ammonium bromide)); 450 µg/mL (≈ 933 µM) in series [2] (medium with 1% sodium lauryl sulphate (SLS), aqueous with cosolvent or surfactant or cyclodextrin, with 1% SLS (sodium lauryl sulphate)); below 5 µg/mL in series [2] (pH 4.5 buffer, pH 4.5, aqueous buffer); below 5 µg/mL in series [2] (pH 6.8 buffer, pH 6.8, aqueous buffer). The “Hygroscopicity (classification)” value in series [3] is “moderately hygroscopic”. Moreover, the “Hygroscopicity: moisture absorption” value in series [3] (actual moisture of 81.5%) was 81.5% and a moisture absorption of about 5.425%; the sample was. Moreover, the “MTD (maximum tolerated dose)” value in series [4] (Compound A monotherapy, QD) is listed as 40 mg. In series [4] (emerging data from the ongoing Compound A clinical study), the “Increased incidence of ocular AEs” value was “no evidence”. Further, the Main metabolic pathway entry in series [5] is reported as “mainly metabolized by the CYP3A pathway”.
